The results in this text go back to patent US6867186B2, “Cell-permeable protein inhibitors of calpain” (New England Medical Center Hospital, priority 1997, dated 2005).

Like-named read-outs stand apart in the source and are kept apart here. Peptide text beside a SMILES is read from it. * marks the point of attachment. Cbz = O=C(OCc1ccccc1)*; CHN2 = [N-]=[N+]=C* A value given as a limit tells only on which side of the number the result lay.

The subject of one series is gel filtered platelets. Kind of series: Thrombin-induced platelet aggregation (aggregometer). Particulars: for IC50: initial rate during first 15 seconds, NI=no inhibition, peptidyl inhibitors 10 min pre-incubation, read-out: IC50, initial rate of thrombin-induced platelet aggregation; for effect on platelet aggregation: thrombin or SFLLR induced. Type of series: cell-based, human. On the procedure:
In one series of experiments, platelets were purified from […] on a SEPHAROSE 2B column in PIPES buffered saline containing glucose, pre-incubated with 45 μM calpastat or S-TIPPEY-ala for 30 minutes at 37° C., and placed in a cuvette in a BIODATA aggregometer. The aggregometer measures turbidity of the solution by nephlometry (light scatter). Aggregation was induced with thrombin (0.1 to 1 unit/ml) or the thrombin receptor agonist peptide SFLLR (SEQ ID NO:5). […] In contrast, S-TIPPEY-ala had no activity. A version of S-TIPPEYIN lacking the signal sequence similarly had no activity.
In another series of experiments, gel filtered platelets were obtained and tested as follows. Blood from healthy, aspirin-free volunteers was collected by venipuncture into 4% sodium citrate (9:1 v/v, final concentration 0.4%) and centrifuged at 200×g for 20 minutes to obtain platelet rich plasma (PRP). Following incubation with apyrase (4 units/ml for 5 minutes at room temperature), platelets were purified from PRP by gel-filtration at room temperature using a Sepharose 2B column equilibrated in PIPES buffer (25 mM PIPES pH 6.8, 140 mM NaCl, 4 mM KCl, and 0.1% glucose) (Hsu-Lin, et al., J. Biol. Chem. 259:9121-9126, 1984). Final gel filtered platelet concentrations were about 1.5×10^8 cells/ml.
Gel filtered platelets (250 μl aliquots at 1.6×10^8/ml) were incubated with the indicated concentration of calpastat or mutant calpastat-ala for either 20 or 30 minutes at 37° C. in the absence of calcium and stirring. To test peptidyl calpain inhibitors, platelets were preincubated with the indicated concentration of calpeptin, MDL, E64d, DMSO (vehicle control) or NH4Cl (cathepsin control) for 10 minutes at 37° C. Following incubation, platelets were recalcified (CaCl2, 2 mM) and stimulated with 0.05-1.0 unit/ml thrombin, while being stirred (1400 rpm) at 37° C. The sensitivity of platelet preparations to thrombin decreased over the course of a given experiment. The thrombin concentration used was to elicit robust aggregation and varied between 0.05 and 1.0 U/ml. Aggregation was measured using a Bio-Data lumi-aggregometer. Percent inhibition of aggregation was measured at 4 minutes following the onset of aggregation. The initial rate of aggregation during the first 15 seconds for treated vs. untreated samples was used to calculate the IC50 for each inhibitor.

For series [1], the system named is platelets. Kind of series: cells. Type of series: cell-based. The settings on record: for IC50 / effect on platelet spreading: spreading on glass; for IC50: NI=no inhibition, read-out: IC50, inhibition of platelet spreading. As to the method: Platelet activation on surfaces can be inhibited by […] or […] fusion proteins. […] The cellular area of spread platelets was determined by computer assisted image analysis using NIH Image 1.61. […] Percent inhibition of spreading was calculated from the increase in mean cell area for untreated and treated samples vs. unspread DMSO controls.

A further series deals with U1 cells. Kind of series: U1 cell viability (Trypan-blue exclusion). The format is cell-based, human. The settings on record: for U1 cell viability: 96 hr. As to the method: (§1) U1 is a human promonocytic cell line that is chronically infected with HIV-1 and that constitutively expresses low levels of HIV-1. […] In the present experiment, 1×10^6 cells/ml were treated with various dosages of calpastat and incubated for one hour at 37° C. After incubation, various concentrations of Tpg were added to the calpastat-treated cells and aliquoted into a 24-well plate. To observe the stimulation of HIV-1 activity by Tpg, equivalent numbers of cells were treated with Tpg alone. The cells were then incubated at 37° C. for up to four days, and supernatants from the cell culture were collected each day to measure HIV-1 activity. The viability of cells treated with both Tpg and calpastat were determined each day by Trypan-blue exclusion test. The HIV-1 activity in the collected supernatants was determined by measuring the HIV-1 p24 core antigen protein by ELISA (Dupont Medical Products, Boston, Mass.) according to the manufacturer's instructions.
In another series of experiments, U1 cells, which are latently infected with HIV-1 provirus, were plated at 10^6 cells/well in 1 ml of medium and treated with varying concentrations of either calpastat (FIG. 7E) or calpeptin (benzyloxycarbonyl-leucyl-norleucinal) (FIG. 7F) for 45 minutes before addition of thapsigargin (4 nM final concentration). The viability of U1 monocytes was 90% at 48 hours of thapsigargin (4 nM) treatment, in the presence or absence of calpain inhibitors. After 48 hours of stimulation, HIV-1 p24 antigen levels were determined in 200 μl of tissue culture supernatant, using a p24 ELISA (DuPont). All assays were performed on triplicate cultures. Mean values and standard deviations are shown for each concentration of inhibitor (FIGS. 7E-7F).

Another series deals with HIV-1. The settings on record: 24 h. As to the method:
as §1
In another series of experiments, U1 cells, which are latently infected with HIV-1 provirus, were plated at 10^6 cells/well in 1 ml of medium and treated with varying concentrations of either calpastat (FIG. 7E) or calpeptin (benzyloxycarbonyl-leucyl-norleucinal) (FIG. 7F) for 45 minutes before addition of thapsigargin (4 nM final concentration). […] After 48 hours of stimulation, HIV-1 p24 antigen levels were determined in 200 μl of tissue culture supernatant, using a p24 ELISA (DuPont). All assays were performed on triplicate cultures.

The test system of series [2] is platelets. Kind of series: cells. As to the method:
To determine whether S-TIPPEYIN could inhibit α-granule secretion in platelets, surface expression of P-selectin, which indicates α-granule secretion, was induced with the thrombin peptide SFLLR (SEQ ID NO:5) and analyzed by flow cytometry using an antibody against P-selectin. Blood from healthy volunteers was collected into sodium citrate (4% w/v) and centrifuged at 200×g for 10 minutes to prepare platelet-rich plasma (PRP), from which platelets were subsequently purified by gel filtration using a SEPHAROSE 2B column in PIPES buffer. Twenty μl of platelets (approximately 2×10^8 platelets/ml) were aliquoted into eppendorf tubes and one μl of S-TIPPEYIN, TIPPEYIN (lacking the signal peptide sequence), or S-TIPPEY-ala was added to achieve final concentrations of 6.25, 12.5, 25, 50, or 100 μM. The platelets were then incubated for 2 hours at 37° C. and subsequently exposed to either 1 μl PBS (unstimulated) or 1 μl of SFLLR (SEQ ID NO:5; stimulated) at the indicated concentration. After 30 seconds, a 7.5 μl aliquot was transferred to an eppendorf tube containing non-immune serum having antibodies that were conjugated to phycoerythrin. Following a 20 minute incubation at room temperature, the mixture was diluted with 1 ml of 2% paraformaldehyde and incubated at 4° C. for two hours. Antibody binding to platelet surface P-selectin was quantified using a FACSCAN flow cytometer (Becton Dickerson, San Jose, Calif.). Results were reported as the geometric mean of the relative fluorescence.
Platelets were pre-incubated with increasing concentrations of calpeptin, MDL, E64d, or DMSO (vehicle control) for ten minutes prior to stimulation with SFLLR.

The subject of another series is calpain. Kind of series: Ionophore-dependent calpain degradation of ABP and talin in platelets. The settings on record: 5, 8, or 10 minutes A23187. The format is cell-based. As to the method: To investigate whether calpastat inhibits calpain activity in platelets, the ionophore-dependent proteolysis of actin binding protein (ABP; about 280 kDa) and talin (about 240 kDa), both of which are substrates of both μ- and m-calpains, was examined as follows.
Platelets were pre-incubated with ZLLYCHN2, DMSO (solvent for ZLLY-CHN2), calpastat, or HEPES buffer (buffer for calpastat), and then treated with or without ionophore A23187 for 5, 8, or 10 minutes. The platelets were then gel-purified as described above. Whole cell lysates were prepared and fractionated by SDS polyacrylamide gel electrophoresis.

Series [3] concerns the target T1, purified µ-calpain (porcine erythrocyte) (porcine, UniProt P35750 1-714; P04574 1-266, limits assumed).
T1 sequence (looked up) 1: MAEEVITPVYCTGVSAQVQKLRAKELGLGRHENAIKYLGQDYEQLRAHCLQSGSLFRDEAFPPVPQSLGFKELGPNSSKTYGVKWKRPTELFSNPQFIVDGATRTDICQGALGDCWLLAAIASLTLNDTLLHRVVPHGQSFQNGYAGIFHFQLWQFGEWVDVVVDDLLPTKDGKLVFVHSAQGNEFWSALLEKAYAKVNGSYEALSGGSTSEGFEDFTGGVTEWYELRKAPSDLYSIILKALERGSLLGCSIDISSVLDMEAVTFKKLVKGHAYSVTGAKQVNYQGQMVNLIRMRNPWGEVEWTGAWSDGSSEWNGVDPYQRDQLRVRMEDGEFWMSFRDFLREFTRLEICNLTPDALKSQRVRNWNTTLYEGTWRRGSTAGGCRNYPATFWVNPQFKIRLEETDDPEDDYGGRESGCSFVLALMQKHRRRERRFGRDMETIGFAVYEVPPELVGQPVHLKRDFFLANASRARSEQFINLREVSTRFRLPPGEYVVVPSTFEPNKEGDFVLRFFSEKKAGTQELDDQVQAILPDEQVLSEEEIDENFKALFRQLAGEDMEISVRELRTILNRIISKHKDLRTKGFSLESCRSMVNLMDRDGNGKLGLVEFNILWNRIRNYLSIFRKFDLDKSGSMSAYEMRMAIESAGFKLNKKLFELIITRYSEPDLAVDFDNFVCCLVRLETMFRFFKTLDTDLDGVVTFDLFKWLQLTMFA
T1 sequence (looked up) 2: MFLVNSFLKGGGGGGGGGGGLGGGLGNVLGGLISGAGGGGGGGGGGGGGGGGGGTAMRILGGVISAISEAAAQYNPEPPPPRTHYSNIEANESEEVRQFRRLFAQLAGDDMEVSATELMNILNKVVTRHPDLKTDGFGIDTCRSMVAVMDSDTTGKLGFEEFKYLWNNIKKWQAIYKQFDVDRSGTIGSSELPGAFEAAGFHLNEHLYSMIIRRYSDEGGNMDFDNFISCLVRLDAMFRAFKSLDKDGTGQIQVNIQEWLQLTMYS
Kind of series: cell-based or functional assay.

For `CC(C)[C@H](NC(=O)OCc1ccccc1)C(=O)N[C@H](C=O)Cc1ccccc1` [MDL] (Cbz-Val-Phe-aldehyde), the IC50 amounted to 240 µM with gel filtered platelets and 200 µM in the series with platelets [1]. The “platelets round and unspread” value in the series on platelets [1] (pre-treated at 200 μM) is 30%.

For `CCOC(=O)[C@H]1O[C@@H]1C(=O)N[C@@H](CC(C)C)C(=O)NCCC(C)C` [E64d], the IC50 in the series on gel filtered platelets was 340 µM; in the series on platelets [1] it was greater than 250 µM. Besides, in the series with platelets [1] (pretreated at 250 μM), the “platelets round and unspread” value is “About 20%”.

In the case of `Cl.N` [NH4Cl], in the series with gel filtered platelets, the “effect on platelet aggregation” value is listed as “does not affect platelet aggregation”. In the series on platelets [1], the “effect on platelet spreading” value was “no effect”.

Turning to `C/C=C(/C)C(=O)O[C@H]1C(C)=C2[C@H]([C@@H]1OC(=O)CCCCCCC)[C@@](C)(OC(C)=O)C[C@H](OC(=O)CCC)[C@@]1(O)[C@H]2OC(=O)[C@@]1(C)O` [thapsigargin], the U1 cell viability entry is listed as “about 50%” with U1 cells (4.0 nM Tpg) and roughly 5% in the series on U1 cells (50 nM Tpg). Besides, the “viability of U1 monocytes” value in the series on U1 cells (4 nM thapsigargin, 48 hours, presence or absence of calpain inhibitors) came out at 90%. The “induction of virus (HIV-1)” value came to 1.37 fold in the series with HIV-1 (1 nM Tpg) and 20 fold with HIV-1 (5 nM Tpg).

For the molecule “EKLGERDDTIPPEYRELLEKKTGV [Calpastatin 24 mer]”, the “effect on platelet aggregation” value in the series on gel filtered platelets is on record as “no measurable effect”; with gel filtered platelets (listed as S-TIPPEYIN lacking the signal sequence), “no activity”. In addition, the “effect on SFLLR-induced P-selectin surface expression” value in the series on platelets [2] (pre-incubation, SFLLR stimulation) was “little effect”.

Consider `CC(C)C[C@H](NC(=O)OCc1ccccc1)C(=O)N[C@@H](CC(C)C)C(=O)N[C@@H](Cc1ccc(O)cc1)C(=O)C=[N+]=[N-]` [ZLLYCHN2, reference compound] (Cbz-Leu-Leu-Tyr-CHN2), for which the “A23187-dependent calpain degradation of ABP and talin in platelets” value in the series with calpain is listed as “inhibited”. Further, the “effect on platelet spreading” value in the series on platelets [1] is given as “no inhibitory activity”.

In the case of `CCCC[C@@H](C=O)NC(=O)[C@H](CC(C)C)NC(=O)OCc1ccccc1` [Calpeptin, benzyloxycarbonyl-leucyl-norleucinal], the IC50 in the series with gel filtered platelets (Homo sapiens, Platelet) is 150 µM; with platelets [1] (Platelet) it was 200 µM; in the series with platelets [2] (Homo sapiens, Platelet, read-out: IC50 / half-maximal inhibition of P-selectin surface expression), 200 to 300 µM. Moreover, the “platelets round and unspread” value in the series with platelets [1] (pre-treated at 200 μM) came to 30%.

Take H-AAVALLPAVLLALLAPEKLGERDDTIPPEYRELLEKKTGV-OH [calpastat]: in series [3], the “inhibition of calpain cleavage of [14C]-methylcasein in a cell-free system (2.7 µM µ-calpain), IC50” value amounted to 500 nM and the “inhibition of µ-calpain cleavage of suc-LLVY-AMC (fluorometric calpain assay, 70 nM enzyme), IC50” value stood at 50 nM.
